From US8455240B2, “Use of thermophilic sulphate-reducing archaea for the implementation of a process for the degradation of hydrocarbons” (Institut de Recherche pour le Development (I.R.D.), priority 2005, dated 2013)
Values joined by “and” are separate entries in the source; they are usually repeats but may differ in a detail not shown here. Identical values can stand only once.

Columns and labels:
[1] = system: strain L-3; test: Sources of carbon and energy used by the strain L-3; format: cell-based, Archaeoglobus fulgidus CNCM I-3465 (strain L-3); settings: for OD 580 nm Final / OD 580 nm Initial / H2S (480 nm): thiosulphate as electron acceptor
Experimental: (§1) Experimentally, 4 ml of Cord-Ruwish reagent comprising 50 mmol/l of HCl and 5 mmol/l of CuSO4 are added to 0.1 ml of sample. Copper sulphate (CuSO4) by reacting with hydrogen sulphide (H2S), forms a copper sulphide precipitate (CuS) after the reaction: CuSO4+H2S→CuS+H2SO4
(§2) According to this method, the CuS is assayed by spectrophotometry at 480 nm. The readings are carried out against a blank constituted by 4 ml of Cord-Ruwish reagent.
(§3) The analysis and quantification of the metabolites are carried out by HPLC by measuring the disappearance of the substrate and the appearance of different metabolism products.
The study of the growth of the strain L-3 in the presence of different sources of carbon and energy was carried out with thiosulphate as an electron acceptor. The monitoring was carried out by estimation of the cell biomass (OD 580 nm), by assay of the sulphide production (Cord-Ruwish). The results were confirmed by HPLC analyses, and completed in certain cases by a CO2 assay.

[2] = system: strain L-3; test: Screening for hydrocarbon degradation, strain L-3 (sulphide production, Cord-Ruwish); format: cell-based, Archaeoglobus fulgidus CNCM I-3465 (strain L-3); settings: for sulphide production (OD 480) 0 d: aromatics solubilized in HMN
Experimental: as §1, §2
(§4) The study of the hydrocarbon degradation abilities is an experiment which requires a particularly long incubation. Thus, it was carried out in Bellco tubes sealed with thick rubber stoppers.
(§5) For these experiments, tubes containing 10 ml of culture medium without substrate, are 10% inoculated, then the hydrocarbon is introduced by injection through the stopper.
(§6) The hydrocarbons chosen are model molecules belonging to the different classes of hydrocarbons, namely: • hexadecane (CH3(CH2)14CH3, C16), a saturated linear aliphatic hydrocarbon; • hexadecene (CH3(CH2)13CHCH2, C16:1), an unsaturated linear aliphatic hydrocarbon of biogenic origin; • dibenzothiophene (DBT, C12H8S), a sulphur-containing aromatic hydrocarbon.
(§7) The aliphatic hydrocarbons (C16; C16:1) are added to the corresponding tubes, at a rate of 0.04 ml/10 ml of culture medium. The aromatic hydrocarbons (DBT) are solubilized in 2,2,4,4,6,8,8-heptamethylnonane (HMN, C16H34) at a rate of 20 mg/ml of HMN, and 0.75 ml of this solution is injected into 10 ml of culture medium.
(§8) 3 tubes were produced for each test and control. The growth of the strains was monitored indirectly by the production of sulphide.
(§9) A subculture was carried out starting from the preceding experiment on naphthalene, DBT solubilized as previously in HMN, and on HMN alone, for the two strains studied.

[3] = system: Archaeoglobus fulgidus; test: Screening for hydrocarbon degradation, A. fulgidus (sulphide production, Cord-Ruwish); format: cell-based; settings: for sulphide production (OD 480) 0 d: aromatics solubilized in HMN; for ΔS tf-ti: final minus initial sulphide
Experimental: as §1, §2, §4, §5, §6, §7, §8, §9

[4] = system: Archaeoglobus fulgidus (DSM 4304); test: Degradation of different substrates by A. fulgidus as a function of the electron acceptor; format: cell-based; settings: for ability of Archaeoglobus fulgidus to oxidize the substrate: thiosulphate or sulphate as electron acceptor
Experimental: as §1, §2, §3
(§10) The study of the degradation abilities of different substrates of the strain L-3 was based on a comparison with the collection strain, Archaeoglobus fulgidus (DSM 4304). The degradation of the substrates, by the two strains was monitored by a measurement of the cell biomass at 580 nm, a sulphide assay produced according to the Cord-Ruwish method, a study of the degradation metabolites by HPLC, completed by a CO2 assay with a GPC-Katharometer.
(§11) Two series of tests were prepared, one with thiosulphate, the other with sulphate as an electron acceptor.

[5] = system: strain L-3; test: Degradation of different substrates by the strain L-3 as a function of the electron acceptor; format: cell-based, Archaeoglobus fulgidus CNCM I-3465 (strain L-3); design: total H2S: unit not given here; settings: for ability of the strain L-3 to degrade the substrate: thiosulphate or sulphate as electron acceptor
Experimental: as §1, §2, §3, §10, §11

[6] = system: strain L-3; test: Subculture on hydrocarbons, strain L-3 (sulphide production); format: cell-based, Archaeoglobus fulgidus CNCM I-3465 (strain L-3)
Experimental: as §1, §2, §9
(§12) For this subculture, apart from the tests containing the hydrocarbon (DBT, naphthalene (Naph), […]), and seeded with the previously chosen inoculum, abiotic controls (negative controls) containing the substrate (hydrocarbon) but not inoculated were produced for the purpose of quantifying the sulphide production which could be due to chemical reactions between the different constituents of the medium. In these controls there was no development in the concentration of sulphide over a period of 20 days (Table 4).

[7] = system: A. fulgidus; test: Subculture on hydrocarbons, A. fulgidus (sulphide production); format: cell-based, Archaeoglobus fulgidus
Experimental: as §1, §2, §9, §12

[8] = sulphate as electron acceptor, unit from b116
[9] = thiosulphate as electron acceptor
[10] = thiosulphate as electron acceptor, unit from b116
[11] = choice of the inoculum for the subculture, tubes of the screening

Row | SMILES | OD 580 nm Final [1] | OD 580 nm Initial [1] | H2S (480 nm) ([1]; unit from b126) | final OD 580 ([4]; sulphate as electron acceptor) | initial OD 580 ([4]; sulphate as electron acceptor) | final OD 580 [4, 9] | initial OD 580 [4, 9] | final OD 580 ([5]; sulphate as electron acceptor) | initial OD 580 ([5]; sulphate as electron acceptor) | total H2S ([5]; sulphate as electron acceptor) | final OD 580 [5, 9] | initial OD 580 [5, 9] | total H2S [5, 9] | other results
1 | CC(=O)O [Acetate] | 0.0904 and 0.0812 | 0.0671 and 0.0771 | 0.4 mM and 0.3 mM | – | – | – | – | – | – | – | – | – | – | –
2 | CCCCCCCCCCCCCCCC [C16, hexadecane] | – | – | – | – | – | – | – | – | – | – | – | – | – | sulphide production (OD 480) 0 d [2]: 0.6 mM and 0.5 mM and 0.9 mM; sulphide production (OD 480) 0 d [3]: 0.7 mM and 0.8 mM and 0.9 mM; sulphide production (OD 480) 70 d [3]: 1 mM and 0.5 mM and 0.8 mM
3 | O=CO [Formate] | 0.0672 and 0.0759 | 0.0765 and 0.0875 | 0.2 mM and 0.4 mM | 0.1 and 0.1157 | 0.0805 and 0.0853 | 0.1218 and 0.1208 | 0.1107 and 0.1183 | 0.0711 and 0.064 | 0.0585 and 0.0634 | 2.5 and 5 | 0.1048 and 0.1186 | 0.1003 and 0.1241 | 3.6 and 2.8 | total H2S [4, 8]: 3.6 mM and 5 mM; total H2S [4, 10]: 5.8 mM and 7.4 mM; ability of Archaeoglobus fulgidus to oxidize the substrate [4]: capable of oxidizing; ability of the strain L-3 to degrade the substrate [5]: does not develop
4 | O=C(CO)[C@@H](O)[C@H](O)[C@H](O)CO [Fructose, fructose] | 0.1003 and 0.0893 | 0.0663 and 0.0818 | 0.3 mM | – | – | – | – | – | – | – | – | – | – | HPLC analyses, initial quantity of the substrate ([1]; no increase in biomass or sulphide, explained by isomerization at high temperature): reduction in the initial quantity of the substrate
5 | O=C(O)/C=C/C(=O)O [Fumarate] | – | – | – | 0.1122 and 0.14 | 0.0759 and 0.085 | 0.1399 and 0.1535 | 0.1085 and 0.117 | 0.1085 and 0.0899 | 0.0606 and 0.062 | 2.5 and 3.3 | 0.1431 and 0.1137 | 0.1083 and 0.0796 | 3.2 and 2.5 | total H2S [4, 8]: 2.4 mM and 3.1 mM; total H2S ([4]; sulphate as electron acceptor, unit from b116, listed as fumarate): ≤ 3.1 mM; total H2S [4, 10]: 5.1 mM and 6.5 mM; total H2S ([4]; thiosulphate as electron acceptor, unit from b116, listed as fumarate): 6.5 mM; ability of Archaeoglobus fulgidus to oxidize the substrate [4]: capable of oxidizing; ability of the strain L-3 to degrade the substrate [5]: capable of degrading
6 | c1ccc2ccccc2c1 [Naphthalene, naphthalene] | – | – | – | – | – | – | – | – | – | – | – | – | – | sulphide production (OD 480) 0 d ([6]; 0 d): 0.2 mM (2×) and 0.3 mM; sulphide production (OD 480) 8 d ([6]; 8 d): 0.5 mM and 0.4 mM and 0.6 mM; sulphide production (OD 480) 22 d ([6]; 22 d): 0.9 mM and 0.5 mM and 0.8 mM; sulphide production (OD 480) 45 d ([6]; 45 d): 0.9 mM and 0.7 mM and 1.3 mM; ΔS tf-ti ([6]; final minus initial sulphide): 0.7 mM and 0.5 mM and 1 mM; sulphide production (OD 480) 0 d ([7]; 0 d): 0.2 mM; sulphide production (OD 480) 8 d ([7]; 8 d): 0.8 mM and 0.4 mM and 0.5 mM; sulphide production (OD 480) 0 d [2]: 0.8 mM and 0.6 mM; sulphide production (OD 480) 10 d ([2]; 10 d): 0.4 mM and 0.3 mM and 0.6 mM; sulphide production (OD 480) 45 d [2]: 0.9 mM and 1 mM and 0.8 mM; sulphide production (OD 480) 60 d [2]: 0.6 mM and 0.5 mM; sulphide production (OD 480) 70 d [2]: 1.7 mM and 1.3 mM and 1.1 mM; H2S [2, 11]: 1.3 mM and 1.1 mM; sulphide production (OD 480) 0 d [3]: 0.8 mM; sulphide production (OD 480) 10 d [3]: 0.4 mM and 0.6 mM and 0.8 mM; sulphide production (OD 480) 45 d ([3]; 45 d): 0.8 mM and 1.1 mM and 1.4 mM; sulphide production (OD 480) 60 d [3]: 0.7 mM and 1.2 mM; sulphide production (OD 480) 70 d [3]: 1.3 mM and 1.7 mM; H2S [3, 11]: 1.3 mM and 1.7 mM; ΔS tf-ti [3]: 0.5 mM and 0.9 mM
7 | c1ccc2c(c1)ccc1ccccc12 [Phenanthrene, phenanthrene] | – | – | – | – | – | – | – | – | – | – | – | – | – | sulphide production (OD 480) 45 d [2]: 0.5 mM and 1 mM and 0.8 mM; sulphide production (OD 480) 60 d [2]: 0.4 mM and 0.5 mM and 0.3 mM; sulphide production (OD 480) 70 d [2]: 0.5 mM and 0.6 mM and 0.8 mM; ΔS tf-ti ([2]; final minus initial sulphide): ≤ 0.5 mM; sulphide production (OD 480) 10 d [3]: 1.1 mM and 0.8 mM and 1.4 mM; sulphide production (OD 480) 60 d [3]: 0.8 mM and 0.5 mM; ΔS tf-ti [3]: ≤ 0.5 mM
8 | CCC(=O)O [Propionate, propionate] | 0.0871 and 0.072 | 0.0669 and 0.0717 | 0.3 mM | – | – | – | – | – | – | – | – | – | – | –
9 | CC(=O)C(=O)O [Pyruvate, pyruvate] | 0.1315 and 0.1758 | 0.067 and 0.0713 | – | 0.1643 and 0.1575 | 0.1281 and 0.1377 | 0.3668 and 0.3489 | 0.1368 and 0.1351 | 0.0958 and 0.0944 | 0.0603 and 0.0636 | 3.5 and 3.3 | 0.1161 and 0.0863 | 0.0785 and 0.0911 | 4 | total H2S ([4]; sulphate as electron acceptor): 10.3 mM and 7.3 mM; H2S (480 nm) [1]: 5.2 mM
